Assays:
cutinase = cutinase (Fusarium vanettenii, UniProt P00590); format: biochemical, Fusarium solani pisi; details: read-out: Michaelis constant (KM)
Method: The release of PNP was followed using absorbance spectroscopy.
Spectrophotometric measurement was performed at room temperature using BECKMAN DU-640 spectrophotometer (BECKMAN COULTER, INC., Fullerton, Calif.).

GST [1] = target: T1, GST (Rattus norvegicus, UniProt P08010); details: read-out: affinity of binding to GST; cited from earlier work
T1 sequence (P08010 2-218 limits assumed): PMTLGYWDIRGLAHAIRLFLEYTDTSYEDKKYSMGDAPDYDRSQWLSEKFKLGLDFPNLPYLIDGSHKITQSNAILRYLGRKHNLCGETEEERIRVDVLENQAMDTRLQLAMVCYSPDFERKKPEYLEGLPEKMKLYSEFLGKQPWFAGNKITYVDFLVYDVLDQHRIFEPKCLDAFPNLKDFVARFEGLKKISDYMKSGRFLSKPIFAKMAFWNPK

GST [2] = target: T1, GST; details: corresponds to affinity of 100 μM
Excerpt: For example, glutathione-S-transferase (GST) is an enzyme which is commonly used as an affinity handle for the purification of recombinant proteins. The target protein is expressed and purified as a GST fusion and may then be treated with a protease to remove the GST domain (Smith and Johnson, 1988).

GST [3] = target: T2, GST (Schistosoma japonicum, UniProt P08515); assay: SPR immobilization of GST to self-assembled monolayer; format: binding; details: monolayer from 1:99 mixture of alkanethiol 13 and penta(ethylene glycol) alkanethiol; GST 100 μM, PBS pH 7.4
T2 sequence (P08515 2-218 limits assumed): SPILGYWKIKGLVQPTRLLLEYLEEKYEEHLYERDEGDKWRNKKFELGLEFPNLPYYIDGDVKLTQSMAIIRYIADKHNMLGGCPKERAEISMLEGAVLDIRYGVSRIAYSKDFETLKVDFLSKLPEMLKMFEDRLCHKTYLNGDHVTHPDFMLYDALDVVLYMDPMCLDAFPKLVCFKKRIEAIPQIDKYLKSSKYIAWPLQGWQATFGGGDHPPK

GST [4] = target: T2, GST; details: bound complex with GST

Sequence of cutinase (P00590 17-230): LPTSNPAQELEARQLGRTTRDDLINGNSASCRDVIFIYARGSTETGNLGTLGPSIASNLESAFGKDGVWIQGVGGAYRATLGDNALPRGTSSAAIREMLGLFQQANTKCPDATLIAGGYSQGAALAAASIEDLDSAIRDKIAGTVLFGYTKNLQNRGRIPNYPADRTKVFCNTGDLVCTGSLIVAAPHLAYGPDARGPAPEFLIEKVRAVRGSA

Question: Which Km (cutinase) does the source give for CCCC(=O)Oc1ccc([N+](=O)[O-])cc1 [4-nitrophenyl butyrate] here?
Answer: Its Km is 1000 µM.

Question: Which Kd (GST [1]) does the source give for N[C@@H](CCC(=O)N[C@@H](CS)C(=O)NCC(=O)O)C(=O)O [glutathione] here?
Answer: Its Kd is about 100 µM.

Question: What about the “lifetime of the bound complex” value (GST [2]) of the same compound?
Answer: Its value is “about one”.

Question: For “Hydroquinone-glutathione-EG5-alkanethiol [compound 13]”, which “binding of GST to monolayer” value (GST [3]) is on record?
Answer: Its value is “this binding was irreversible”.

Question: For “Glutathione-dichtoroquinone conjugate [formula (6)]”, which “first-order rate constant of irreversible cross-linking reaction” value (GST [4]) is on record?
Answer: Its value is 0.11 ± 0.03 min⁻¹.
